The text below walks through data of patent publication US12030868B2, “Prodrugs of CGRP antagonists” (Pfizer Ireland Pharmaceuticals, priority 2018, dated 2024).

A short description of data set [1]: Caco-2 permeability assay. In kind it is in vitro ADME, human. The settings on record: human, Caco-2 monolayer, donor 10 μM, 37° C., pH 7.4; for Papp A→B at 90 min, 10 μM: apical to basolateral; for Papp B→A at 90 min, 10 μM: basolateral to apical. The procedure: (§1) Caco-2 Permeability Assay
(§2) The Caco-2 cells are cultured to confluency, trypsinized and seeded onto a filter transwell insert at a density of ^˜32,000 cells/well in DMEM cell culture medium. Cells are grown in a humidified atmosphere of 5% CO2 at 37° C. Following an overnight attachment period (24 h after seeding), the cell medium is replaced with fresh medium in both the apical and basolateral compartments every other day. The cell monolayers are used for transport studies 21 days post seeding after measuring the TEER values ([…]). The apical sides and basolateral sides are washed consecutively with HBSS 2.5% (v/v), HEPES (pH 7.4) or HBSS 2.5% (v/v), HEPES 10% (v/v), and Fetal Bovine Serum (pH 7.4) at 37° C. in an incubator under an atmosphere of 5% CO2.
(§3) Donor working solution is prepared by dilution of DMSO stock of test article or positive control with transport media to 10 μM.
(§4) For A→B directional transport, the donor working solution (with test article or positive control, with or without Pgp inhibitor) is added to the apical (A) compartment and the transport media as receiver working solution is added to the basolateral (B) compartment. For B→A directional transport, the donor working solution (with positive control or test article, with or without Pgp inhibitor) is added to the basolateral (B) compartment and transport media as receiver working solution is added to the apical (A) compartment.
(§5) The cells are incubated in a humidified atmosphere of 5% CO2 at 37° C. for 90 minutes.
(§6) At the end of the incubation, samples are taken from both donor and receiver compartments and transferred into 96-well assay plates containing internal standard solution (IS) in each well. After centrifugation, the supernatant solutions are transferred to clean 96 well plates and analyzed by LC-MS/MS. The MS detection is performed using a Sciex API 4000 instrument. Each compound is analyzed by reversed phase HPLC.
(§7) The parameters Papp (apparent permeability) and efflux ratio are calculated as follows: Papp=(dQ/dt)×(1/C0)×(1/A) Efflux ratio=Papp[B→A]/Papp[A→B] • where dQ/dt is the permeability rate, C0 is the initial concentration in the donor compartment, and A is the surface area of the cell monolayer (0.33 cm^2). The Papp value is a rate measured in cm/s.
(§8) Comparing the efflux ratios generated in the presence and absence of a Pgp inhibitor identifies whether the test article is a Pgp substrate.
(§9) Recovery is calculated as follows: % Recovery=(Total compound mass in donor and receiver compartments at the end of the incubation/Initial compound mass in the donor compartment)×100.

The subject of the next data set is Caco-2 cells. Put plainly: Caco-2 permeability assay. In kind it is in vitro ADME, human. The settings on record: Caco-2 monolayer, donor 10 μM, 90 minutes, 37° C., pH 7.4; for Papp A-B: apical to basolateral; for Papp B-A: basolateral to apical. The procedure: as §1, §2, §3, §4, §5, §6, §7, §8, §9

Where a name gives a salt, the structure may show the parent alone. Where only a bound is given, the exact number is not on record here.

Consider `Cc1cc2cc3cn(nc13)COC(=O)C1(C/C=C\CC3(CC3)C(=O)OCn3c(=O)c(cc4ccccc43)C3CCN(CC3)C(=O)N[C@@H](C(=O)N3CCN(C4CCN(C)CC4)CC3)C2)CC1` [Example 13, (16′Z,31′S)-27′-methyl-31′-[4-(1-methylpiperidin-4-yl)piperazine-1-carbonyl]dispiro[cyclopropane-1,14′-[12,21]dioxa-[10,23,32,34,40]pentaazahexacyclo[32.2.2.1^2,10.1^23,26.1^25,29.0^4,9]hentetracontane-19′,1″-cyclopropane]-2′,4′(9′),5′,7′,16′,24′,26′(40′),27′,29′(39′)-nonaene-13′,20′,33′,41′-tetrone trifluoroacetate], for which, in data set [1], the Papp A→B (usually the apparent permeability from the apical to the basolateral side of a cell layer) at 90 min, 10 μM was 0.839 ×10⁻⁶ cm/s and the Papp B→A (commonly the apparent permeability from the basolateral to the apical side of a cell layer) at 90 min, 10 μM is 20 ×10⁻⁶ cm/s.

`Cc1cc(C[C@@H](NC(=O)N2CCC(c3cc4ccccc4[nH]c3=O)CC2)C(=O)N2CCN(C3CCN(C)CC3)CC2)cc2cn[nH]c12` [BHV-3500, N-[(2R)-3-(7-methyl-1H-indazol-5-yl)-1-[4-(1-methylpiperidin-4-yl)piperazin-1-yl]-1-oxopropan-2-yl]-4-(2-oxo-1,2-dihydroquinolin-3-yl)piperidine-1-carboxamide, reference compound] gave an apparent permeability from apical to basolateral (Papp A→B) at 90 min, 10 μM in data set [1] of less than 0.05 ×10⁻⁶ cm/s.

Consider `Cc1cc(C[C@@H](NC(=O)N2CCC(c3cc4ccccc4n(COC(=O)C(C)(C)C)c3=O)CC2)C(=O)N2CCN(C3CCN(C)CC3)CC2)cc2cn(COC(=O)C(C)(C)C)nc12` [Example 4, {5-[(2R)-2-{[4-(1-{[(2,2-dimethylpropanoyl)oxy]methyl}-2-oxo-1,2-dihydroquinolin-3-yl)piperidine-1-carbonyl]amino}-3-[4-(1-methylpiperidin-4-yl)piperazin-1-yl]-3-oxopropyl]-7-methyl-2H-indazol-2-yl}methyl 2,2-dimethylpropanoate trifluoroacetate], for which, in data set [1], the Papp A→B at 90 min, 10 μM is 5.1 ×10⁻⁶ cm/s and the Papp B→A at 90 min, 10 μM is 2.9 ×10⁻⁶ cm/s.

Consider `Cc1cc2cc3cn(nc13)COC(=O)C(C)(C)C/C=C\CC(C)(C)C(=O)OCn1c(=O)c(cc3ccccc31)C1CCN(CC1)C(=O)N[C@@H](C(=O)N1CCN(C3CCN(C)CC3)CC1)C2` [Example 10, (16Z,31R)-14,14,19,19,27-pentamethyl-31-[4-(1-methylpiperidin-4-yl)piperazine-1-carbonyl]-12,21-dioxa-10,23,32,34,40-pentaazahexacyclo[32.2.2.1^2,10.1^23,26.1^25,29.0^4,9]hentetraconta-2,4(9),5,7,16,24,26(40),27,29(39)-nonaene-13,20,33,41-tetrone], for which, in data set [1], the Papp A→B at 90 min, 10 μM stood at 0.31 ×10⁻⁶ cm/s and the Papp B→A at 90 min, 10 μM worked out at 28.9 ×10⁻⁶ cm/s.

In data set [1], `Cc1cc2cc3cn(nc13)COC(=O)C(C)(C)CCCCC(C)(C)C(=O)OCn1c(=O)c(cc3ccccc31)C1CCN(CC1)C(=O)N[C@@H](C(=O)N1CCN(C3CCN(C)CC3)CC1)C2` [Example 125, (31R)-14,14,19,19,27-pentamethyl-31-[4-(1-methylpiperidin-4-yl)piperazine-1-carbonyl]-12,21-dioxa-10,23,32,34,40-pentaazahexacyclo[32.2.2.1^2,10.1^23,26.1^25,29.0^4,9]hentetraconta-2,4,6,8,24,26(40),27,29(39)-octaene-13,20,33,41-tetrone] came in with a Papp A→B at 90 min, 10 μM of 2.2 ×10⁻⁶ cm/s and a Papp B→A at 90 min, 10 μM of 13.9 ×10⁻⁶ cm/s.

With “(R)-(3-(1-(3-(7-methyl-2-(octanoyloxymethyl)-2H-indazol-5-yl)-1-(4-(1-methylpiperidin-4-yl)piperazin-1-yl)-1-oxopropan-2-ylcarbamoyl)piperidin-4-yl)-2-oxoquinolin-1(2H)-yl)methyl octanoate compound with (R)-heptyl 7-methyl-5-(3-(4-(1-methylpiperidin-4-yl)piperazin-1-yl)-2-(4-(1-(octanoyloxymethyl)-2-oxo-1,2-dihydroquinolin-3-yl)piperidine-1-carboxamido)-3-oxopropyl)-1H-indazole-1-carboxylate (1:1) [Example 59]”, in the data set with Caco-2 cells, the “Papp A-B” value is 2.2 ×10⁻⁶ cm/s and the “Papp B-A” value worked out at 7.6 ×10⁻⁶ cm/s.

Regarding “(R)-(7-methyl-5-(3-(4-(1-methylpiperidin-4-yl)piperazin-1-yl)-3-oxo-2-(4-(2-oxo-1,2-dihydroquinolin-3-yl)piperidine-1-carboxamido)propyl)-1H-indazol-1-yl)methyl heptanoate compound with (R)-(7-methyl-5-(3-(4-(1-methylpiperidin-4-yl)piperazin-1-yl)-3-oxo-2-(4-(2-oxo-1,2-dihydroquinolin-3-yl)piperidine-1-carboxamido)propyl)-2H-indazol-2-yl)methyl heptanoate (1:1) [Example 61]”, in the data set with Caco-2 cells, the “Papp A-B” value worked out at 2.5 ×10⁻⁶ cm/s and the “Papp B-A” value stood at 1.96 ×10⁻⁶ cm/s.

In data set [1], `CCCCCCN(C)C(=O)OCn1cc2cc(C[C@@H](NC(=O)N3CCC(c4cc5ccccc5n(COC(=O)N(C)CCCCCC)c4=O)CC3)C(=O)N3CCN(C4CCN(C)CC4)CC3)cc(C)c2n1` [Example 93, {5-[(2R)-2-({4-[1-({[hexyl(methyl)carbamoyl]oxy}methyl)-2-oxo-1,2-dihydroquinolin-3-yl]piperidine-1-carbonyl}amino)-3-[4-(1-methylpiperidin-4-yl)piperazin-1-yl]-3-oxopropyl]-7-methyl-2H-indazol-2-yl}methyl N-hexyl-N-methylcarbamate] returned a Papp A→B at 90 min, 10 μM of 1.13 ×10⁻⁶ cm/s and a Papp B→A at 90 min, 10 μM of 10.7 ×10⁻⁶ cm/s.
